{"source": "paper PMC539285", "about": "“Anti-Plasmodium activity of ceramide analogs” (Malaria Journal, 2004)", "key": {"[1]": {"system": "malaria-induced anion channel", "assay": "Malaria-induced anion channel activity, whole-cell patch-clamp", "assay_type": "cell-based, Plasmodium falciparum", "details": "infected erythrocytes, 24 hours, 250 nM AD2646 or 10 μM PPMP, whole-cell patch-clamp (unpublished data)", "from_the_text": "Sphingolipids preferentially interact with cholesterol in membranes, especially in detergent-resistant microdomains (DRMs or rafts). Rafts have been described in Plasmodium and are involved, at least, in the uptake of erythrocyte raft proteins and maintenance of the parasitophorous vacuole containing the parasite, inside the erythrocyte. This interaction implies : 1) van der Waals interactions between the saturated acyl chain and sphingoid moiety of sphingolipids and the rigid planar tetracyclic rings of cholesterol and 2) hydrogen bonds between the 3-β hydroxyl group of cholesterol and the fatty acyl carbonyl group resulting from the amide linkage with the sphingoid moiety. The amide-linked fatty acid function seems to have a profound stabilizing effect on cholesterol-sphingolipid interactions. It could be hypothesized that in a membrane context, methylene analogs might have a destabilizing effect on the cholesterol-sphingolipid interactions and, in consequence, modifications of membrane properties. Indeed, P. falciparum growth is characterized by a setting up of new permeabilities of the infected-erythrocyte membrane. Although the biochemical nature of these new permeabilities is still unknown, they have been characterized from an electrophysiological point of view and involve a malaria-induced anion channel. […]"}, "human MRC-5 cells": {"system": "human MRC-5 cells", "assay": "Cytotoxicity test upon human embryonic cells (MTT)", "assay_type": "cell-based", "protocol": "(§1) A human diploid embryonic lung cell line (MRC-5, Bio-Whittaker 72211D) was used to assess the cytotoxic effects towards eukaryotic host cells. MRC-5 cells were seeded at 5,000 cells per well in 100 μl. After 24 hours, the cells were washed and two-fold dilutions of the drug were added in 200 μl standard culture medium (RPMI medium + 5% fetal calf serum) and maintained for five days under 5% CO2 atmosphere. The final DMSO concentration in the culture remained below 0.1%. Untreated cultures were included as controls. The cytotoxicity was determined using the colorimetric MTT assay according to the manufacturer's recommendations (Cell proliferation kit I, Roche Applied Science, France) and scored as a percentage of reduction in absorption at 540 nm of treated cultures versus untreated control cultures. […] The results were expressed as the mean ± the standard deviations determined from several independent experiments. The index of selectivity was defined as the ratio of the IC50 value on MRC-5 to that of P. falciparum."}, "[2]": {"assay": "Cytotoxicity test upon human embryonic cells (MTT)", "assay_type": "cell-based", "details": "human, MRC-5 human diploid embryonic lung cells; MRC-5, five days, MTT; mean of three experiments", "protocol": "as §1"}, "P. falciparum strain F32": {"system": "P. falciparum strain F32", "assay": "Anti-Plasmodium activity, strain F32", "assay_type": "cell-based", "protocol": "(§2) P. falciparum strains (FcB1/Colombia, K1/Thailand, F32/Tanzania, W2/Indochina) were maintained in continuous culture on human erythrocytes in RPMI medium containing 7% (v/v) heat-inactivated human serum under an atmosphere of 3% CO2, 6% O2, 91% N2, at 37°C, as described by Trager and Jensen. Parasite synchronization was performed successively by treatment with 5% (w/v) sorbitol and by concentration in gelatin solution as previously described.\n(§3) Drug susceptibility assays were performed using a modification of the semi automated microdilution technique of Desjardins et al.. Stock solutions of test compounds were prepared in DMSO. Drug solutions were serially diluted twofold with 100 μl culture medium in 96-well plates. Asynchronous parasite cultures (100 μl, 1 % parasitemia and 1 % final hematocrite) were added to each well and incubated for 24 hours at 37°C prior to the addition of 0.5 μCi of [^3H] hypoxanthine (Amersham, France, 1 to 5 Ci.mmol/ml) per well. After a further incubation of 24 hour, plates were frozen and thawed. Cell lysates were then collected onto glass-filter papers and counted in a liquid scintillation spectrometer. The growth inhibition for each drug concentration was determined by comparison of the radioactivity incorporated in the treated culture with that in the control culture (having the same final % of DMSO) maintained on the same plate. […]"}, "P. falciparum": {"system": "P. falciparum", "assay": "Apoptosis of parasites (TdT DNA fragmentation assay, gel electrophoresis, fluorescence microscopy)", "assay_type": "cell-based, Plasmodium falciparum", "details": "1 μM for up to 36 hours (unpublished data, preliminary)", "from_the_text": "Ceramide is at the parting of different ways of sphingolipid metabolism. Analogs have the potential to inhibit different ceramide-metabolizing enzymes and then might have a pleiotropic effect. Ceramide analogs in amide linkage were described as potent inhibitors of alkaline ceramidase in HL60 human myeloid leukemic cells. Methylene analogs inhibit the biosynthesis of SPM and glycosphingolipids in HL60 cells, and acid ceramidase in vitro [10]. When applied to cancer cells, such analogs induced an elevation of the endogenous level of ceramide with the consequent effects of growth suppression and cell death by apoptosis. […] Apoptosis in P. falciparum is still controversial although some characteristics of apoptosis has been described in Plasmodium. […] The hypothesis that AD2646 induced parasite death through modulation of endogenous ceramide level, as observed for cancer cells, is under investigation."}, "FcB1 strain": {"system": "FcB1 strain", "assay": "Drug combination with antimalarial drugs, strain FcB1", "assay_type": "cell-based, Plasmodium falciparum", "details": "FcB1 strain (data not shown)", "from_the_text": "Compound AD2646 (Figure 1) was selected to further investigate the biological effects of methylene analogs on parasite development."}, "P. falciparum strain W2": {"system": "P. falciparum strain W2", "assay": "Anti-Plasmodium activity, strain W2", "assay_type": "cell-based", "protocol": "as §2, §3"}}}
{"smiles": "CCCCCCCCCCCCCCN[C@H](CO)[C@H](O)c1ccc([N+](=O)[O-])cc1", "note": "[AD2646]", "values": [{"measurement": "induced anion channel activity", "setting": "[1]", "result": "did not modulate significantly the induced channel activity"}, {"measurement": "IC50", "setting": "human MRC-5 cells; Homo sapiens, MRC5, 120 h, MRC-5, five days, MTT, mean of three experiments", "result": 4.9, "unit": "µM"}, {"measurement": "Index of selectivity", "setting": "human MRC-5 cells; ratio of the IC50 value on MRC-5 cells to that on P. falciparum", "result": 160}, {"measurement": "IC90 at 5 days", "setting": "[2]", "result": 7.5, "unit": "µM"}, {"measurement": "IC50", "setting": "P. falciparum strain F32", "result": 0.021, "unit": "µM"}, {"measurement": "apoptosis of parasites", "setting": "P. falciparum", "result": "failed to exhibit characteristic apoptosis"}, {"measurement": "drug combination effect with artemether", "setting": "FcB1 strain", "result": "non-synergistic and non-antagonistic effect"}, {"measurement": "drug combination effect with mefloquine", "setting": "FcB1 strain", "result": "non-synergistic and non-antagonistic effect"}, {"measurement": "IC50", "setting": "P. falciparum strain W2", "result": 0.028, "unit": "µM"}]}
